Data reported in ChEMBL document CHEMBL3421549, “2-Aryl-3-methyloctahydrophenanthrene-2,3,7-triols as potent dissociated glucocorticoid receptor agonists” (J Med Chem, 2015).

Key:
Estrogen receptor = target: T1, Estrogen receptor (Homo sapiens, UniProt P03372); assay: Binding affinity to human ER-alpha
T1 sequence (P03372 whole entry): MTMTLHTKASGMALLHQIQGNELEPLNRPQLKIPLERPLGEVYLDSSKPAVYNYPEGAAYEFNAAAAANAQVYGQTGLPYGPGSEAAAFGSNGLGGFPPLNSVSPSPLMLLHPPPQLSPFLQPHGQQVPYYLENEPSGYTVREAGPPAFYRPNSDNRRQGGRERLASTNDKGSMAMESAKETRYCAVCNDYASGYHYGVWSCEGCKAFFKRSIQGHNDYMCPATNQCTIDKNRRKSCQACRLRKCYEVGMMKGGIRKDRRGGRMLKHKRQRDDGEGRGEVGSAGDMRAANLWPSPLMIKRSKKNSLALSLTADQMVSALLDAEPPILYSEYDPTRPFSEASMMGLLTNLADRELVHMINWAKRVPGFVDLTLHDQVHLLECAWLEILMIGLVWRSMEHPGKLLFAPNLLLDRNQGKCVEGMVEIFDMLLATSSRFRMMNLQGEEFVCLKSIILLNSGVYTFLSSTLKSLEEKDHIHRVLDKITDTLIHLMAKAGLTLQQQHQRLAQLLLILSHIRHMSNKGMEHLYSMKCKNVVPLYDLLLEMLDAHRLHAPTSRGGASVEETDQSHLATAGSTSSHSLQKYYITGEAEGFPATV

Glucocorticoid receptor [1] = target: T2, Glucocorticoid receptor (Homo sapiens, UniProt P04150)
T2 sequence (P04150 whole entry): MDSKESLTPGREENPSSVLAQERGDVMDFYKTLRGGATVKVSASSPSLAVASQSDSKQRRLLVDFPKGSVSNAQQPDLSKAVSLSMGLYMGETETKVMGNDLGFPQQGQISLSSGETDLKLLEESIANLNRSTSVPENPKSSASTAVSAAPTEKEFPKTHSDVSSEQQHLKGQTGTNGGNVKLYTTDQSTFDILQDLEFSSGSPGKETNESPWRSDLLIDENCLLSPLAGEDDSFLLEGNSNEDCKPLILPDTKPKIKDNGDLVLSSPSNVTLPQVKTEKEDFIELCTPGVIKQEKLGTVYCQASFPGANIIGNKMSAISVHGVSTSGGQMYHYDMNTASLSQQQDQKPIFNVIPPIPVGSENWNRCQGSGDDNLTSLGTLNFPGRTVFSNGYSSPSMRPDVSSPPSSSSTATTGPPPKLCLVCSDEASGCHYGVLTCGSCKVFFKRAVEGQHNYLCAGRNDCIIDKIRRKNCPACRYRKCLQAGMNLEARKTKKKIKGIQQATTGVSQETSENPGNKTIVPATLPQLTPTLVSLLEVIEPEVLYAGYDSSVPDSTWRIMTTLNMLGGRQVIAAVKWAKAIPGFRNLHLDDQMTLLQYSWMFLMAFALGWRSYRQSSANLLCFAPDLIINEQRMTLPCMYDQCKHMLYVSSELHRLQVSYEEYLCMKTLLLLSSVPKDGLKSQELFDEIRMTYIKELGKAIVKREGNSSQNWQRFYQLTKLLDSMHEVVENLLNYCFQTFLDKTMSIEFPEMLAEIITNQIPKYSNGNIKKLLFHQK
Description: Binding affinity to human GR

Glucocorticoid receptor [2] = target: T2, Glucocorticoid receptor; assay: Transrepression activity at glucocorticoid receptor in human SW1353 cells assessed as repression of IL-1-induced MMP-13 production after 24 hrs by ELISA; format: cell-based
Androgen receptor = target: T3, Androgen receptor (Homo sapiens, UniProt P10275); assay: Binding affinity to human AR
T3 sequence (P10275 whole entry): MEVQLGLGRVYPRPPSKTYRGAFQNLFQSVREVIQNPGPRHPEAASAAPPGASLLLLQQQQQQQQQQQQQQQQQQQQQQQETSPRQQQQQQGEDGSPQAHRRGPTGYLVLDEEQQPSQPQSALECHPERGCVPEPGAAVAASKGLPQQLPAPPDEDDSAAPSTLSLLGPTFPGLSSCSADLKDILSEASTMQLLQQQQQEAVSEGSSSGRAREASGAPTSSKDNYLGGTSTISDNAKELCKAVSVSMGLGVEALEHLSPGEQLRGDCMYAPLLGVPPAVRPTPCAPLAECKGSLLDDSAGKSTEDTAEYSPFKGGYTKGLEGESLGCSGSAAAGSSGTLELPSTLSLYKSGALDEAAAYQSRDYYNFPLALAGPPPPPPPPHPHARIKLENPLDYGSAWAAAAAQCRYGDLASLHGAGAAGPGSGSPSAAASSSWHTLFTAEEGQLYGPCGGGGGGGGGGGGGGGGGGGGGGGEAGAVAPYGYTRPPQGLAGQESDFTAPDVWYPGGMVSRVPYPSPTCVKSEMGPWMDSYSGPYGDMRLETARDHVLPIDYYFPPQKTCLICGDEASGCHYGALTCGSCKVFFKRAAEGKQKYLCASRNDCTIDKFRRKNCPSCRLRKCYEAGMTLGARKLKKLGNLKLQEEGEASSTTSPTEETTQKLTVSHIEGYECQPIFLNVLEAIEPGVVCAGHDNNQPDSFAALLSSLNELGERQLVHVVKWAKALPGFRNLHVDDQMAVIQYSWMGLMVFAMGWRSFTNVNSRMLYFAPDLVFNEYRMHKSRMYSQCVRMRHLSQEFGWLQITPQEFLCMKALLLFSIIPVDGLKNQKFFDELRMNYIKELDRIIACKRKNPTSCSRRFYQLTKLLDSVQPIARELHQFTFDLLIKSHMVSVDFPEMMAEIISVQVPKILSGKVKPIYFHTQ

Glucocorticoid receptor [3] = target: T2, Glucocorticoid receptor; remark: listed apart in the source
Description: Transrepression activity at glucocorticoid receptor in human whole blood assessed as repression of IL-1-induced TNF-alpha production after 4 hrs by ELISA

Progesterone receptor = target: T4, Progesterone receptor (Homo sapiens, UniProt P06401); assay: Binding affinity to human PR
T4 sequence (P06401 whole entry): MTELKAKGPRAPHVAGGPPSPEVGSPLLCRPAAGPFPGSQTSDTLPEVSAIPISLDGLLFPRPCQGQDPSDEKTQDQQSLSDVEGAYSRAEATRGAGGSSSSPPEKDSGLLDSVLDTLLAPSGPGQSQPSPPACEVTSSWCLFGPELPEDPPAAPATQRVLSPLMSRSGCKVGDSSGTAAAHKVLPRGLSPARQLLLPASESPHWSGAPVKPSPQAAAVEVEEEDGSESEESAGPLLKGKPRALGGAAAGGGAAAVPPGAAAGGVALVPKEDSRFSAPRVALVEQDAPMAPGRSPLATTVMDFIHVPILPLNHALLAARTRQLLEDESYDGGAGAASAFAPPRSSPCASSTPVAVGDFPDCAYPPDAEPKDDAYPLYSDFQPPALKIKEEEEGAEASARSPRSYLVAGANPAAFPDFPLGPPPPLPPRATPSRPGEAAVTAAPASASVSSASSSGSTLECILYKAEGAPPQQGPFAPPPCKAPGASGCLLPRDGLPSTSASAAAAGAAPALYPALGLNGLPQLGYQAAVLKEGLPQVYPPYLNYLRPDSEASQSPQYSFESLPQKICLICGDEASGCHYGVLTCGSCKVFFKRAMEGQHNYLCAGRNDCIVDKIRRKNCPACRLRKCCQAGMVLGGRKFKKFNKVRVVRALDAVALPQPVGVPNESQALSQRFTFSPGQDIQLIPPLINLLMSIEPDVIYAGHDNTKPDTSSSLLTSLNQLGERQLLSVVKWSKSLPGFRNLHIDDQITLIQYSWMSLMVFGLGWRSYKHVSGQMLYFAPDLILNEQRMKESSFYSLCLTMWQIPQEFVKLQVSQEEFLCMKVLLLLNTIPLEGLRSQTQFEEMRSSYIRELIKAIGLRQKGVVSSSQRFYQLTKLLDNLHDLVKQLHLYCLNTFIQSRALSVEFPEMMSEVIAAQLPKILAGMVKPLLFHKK

Estrogen receptor beta = Estrogen receptor beta (Homo sapiens, UniProt Q92731); assay: Binding affinity to human ER-beta
Chain of Estrogen receptor beta (Q92731 whole entry): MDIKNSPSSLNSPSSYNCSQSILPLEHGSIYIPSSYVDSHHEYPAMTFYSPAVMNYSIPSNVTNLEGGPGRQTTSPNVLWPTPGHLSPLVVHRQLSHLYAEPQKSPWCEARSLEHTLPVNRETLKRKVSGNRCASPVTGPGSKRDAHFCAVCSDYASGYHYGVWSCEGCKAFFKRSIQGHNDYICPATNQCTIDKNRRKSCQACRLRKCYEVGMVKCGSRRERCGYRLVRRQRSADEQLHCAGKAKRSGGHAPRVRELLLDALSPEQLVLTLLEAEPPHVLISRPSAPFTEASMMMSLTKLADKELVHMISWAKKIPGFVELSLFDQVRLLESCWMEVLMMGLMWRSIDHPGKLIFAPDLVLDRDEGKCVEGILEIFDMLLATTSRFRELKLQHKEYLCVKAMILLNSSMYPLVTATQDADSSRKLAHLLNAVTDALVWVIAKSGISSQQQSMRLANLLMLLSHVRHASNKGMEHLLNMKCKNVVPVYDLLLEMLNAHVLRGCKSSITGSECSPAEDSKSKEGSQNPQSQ

Compound: CC[C@@]12C[C@@](C)(O)[C@](O)(c3ccccc3)C[C@H]1CCc1cc(O)ccc12
- IC50 (Estrogen receptor): > 3200 nM
- IC50 (Glucocorticoid receptor [1]): 0.6 nM
- IC50 (Glucocorticoid receptor [2]): 3.5 nM
- IC50 (Androgen receptor): 300 nM
- IC50 (Glucocorticoid receptor [3]): 109 nM
- IC50 (Progesterone receptor): 321 nM
- IC50 (Estrogen receptor beta): > 3200 nM

Compound: CC[C@@]12C[C@](O)(CC)[C@](O)(c3ccccc3)C[C@H]1CCc1cc(O)ccc12
- IC50 (Glucocorticoid receptor [1]): 1.2 nM
- IC50 (Glucocorticoid receptor [2]): 6 nM

Compound: C=C[C@@]1(O)C[C@@]2(CC)c3ccc(O)cc3CC[C@@H]2C[C@@]1(O)c1ccccc1
- IC50 (Glucocorticoid receptor [1]): 5.2 nM
- IC50 (Glucocorticoid receptor [2]): > 5000 nM

Compound: CC[C@@]12C[C@](C)(O)[C@](O)(c3ccccc3)C[C@H]1CCc1cc(O)ccc12
- IC50 (Glucocorticoid receptor [1]): 38 nM
- IC50 (Glucocorticoid receptor [2]): > 5000 nM

Compound: CC[C@@]12C[C@@](C)(O)[C@](O)(c3ccc(C)cc3)C[C@H]1CCc1cc(O)ccc12
- IC50 (Glucocorticoid receptor [1]): 1.3 nM
- IC50 (Glucocorticoid receptor [2]): 12 nM

Compound: CC[C@@]12C[C@@](C)(O)[C@](O)(c3ccccn3)C[C@H]1CCc1cc(O)ccc12
- IC50 (Glucocorticoid receptor [1]): 1.5 nM
- IC50 (Glucocorticoid receptor [2]): 1.5 nM
- IC50 (Glucocorticoid receptor [3]): 167 nM

Compound: CC[C@@]12C[C@@](C)(O)[C@](O)(c3cccnc3)C[C@H]1CCc1cc(O)ccc12
- IC50 (Glucocorticoid receptor [1]): 22 nM
- IC50 (Glucocorticoid receptor [2]): 80 nM

Compound: CC[C@@]12C[C@@](C)(O)[C@](O)(c3ccncc3)C[C@H]1CCc1cc(O)ccc12
- IC50 (Glucocorticoid receptor [1]): 9.1 nM
- IC50 (Glucocorticoid receptor [2]): 100 nM

Compound: CC[C@@]12C[C@@](C)(O)[C@](O)(c3nccs3)C[C@H]1CCc1cc(O)ccc12
- IC50 (Glucocorticoid receptor [1]): 0.79 nM
- IC50 (Glucocorticoid receptor [2]): 1.5 nM
- IC50 (Glucocorticoid receptor [3]): 83 nM

Compound: CC[C@@]12C[C@@](C)(O)[C@@](C)(O)C[C@H]1CCc1cc(O)ccc12
- IC50 (Glucocorticoid receptor [1]): 211 nM

Compound: CCC[C@]1(O)C[C@H]2CCc3cc(O)ccc3[C@]2(CC)C[C@@]1(C)O
- IC50 (Glucocorticoid receptor [1]): 20.1 nM
- IC50 (Glucocorticoid receptor [2]): > 5000 nM

Compound: C=CC[C@]1(O)C[C@H]2CCc3cc(O)ccc3[C@]2(CC)C[C@@]1(C)O
- IC50 (Glucocorticoid receptor [1]): 35.4 nM
- IC50 (Glucocorticoid receptor [2]): > 5000 nM

Compound: CC#C[C@]1(O)C[C@H]2CCc3cc(O)ccc3[C@]2(CC)C[C@@]1(C)O
- IC50 (Glucocorticoid receptor [1]): 1.5 nM
- IC50 (Glucocorticoid receptor [2]): 1.9 nM

Compound: CC[C@@]12C[C@@](C)(O)[C@](O)(c3ccccc3)C[C@H]1CC(=O)c1cc(O)ccc12
- IC50 (Glucocorticoid receptor [1]): 2.5 nM
- IC50 (Glucocorticoid receptor [2]): 5 nM
- IC50 (Glucocorticoid receptor [3]): 72.5 nM

Compound: CC[C@@]12C[C@@](C)(O)[C@](O)(c3ccccc3)C[C@H]1C[C@@H](O)c1cc(O)ccc12
- IC50 (Glucocorticoid receptor [1]): 79 nM
- IC50 (Glucocorticoid receptor [2]): > 5000 nM

Compound: CC[C@@]12C[C@@](C)(O)[C@](O)(c3ccccc3)C[C@H]1C=Cc1cc(O)ccc12
- IC50 (Glucocorticoid receptor [1]): 0.3 nM
- IC50 (Glucocorticoid receptor [2]): 4 nM
- IC50 (Glucocorticoid receptor [3]): 400 nM

Compound: CC[C@@]12C[C@@](C)(O)[C@](O)(c3ccccc3)C[C@H]1C=C(C)c1cc(O)ccc12
- IC50 (Glucocorticoid receptor [1]): 0.67 nM
- IC50 (Glucocorticoid receptor [2]): 0.6 nM
- IC50 (Glucocorticoid receptor [3]): 43 nM

Compound: CC[C@@]12C[C@@](C)(O)[C@](O)(c3ccccc3)C[C@H]1CC(=O)c1cc(OC(=O)c3ccccc3)ccc12
- IC50 (Glucocorticoid receptor [1]): 1.7 nM
- IC50 (Glucocorticoid receptor [2]): 28 nM

Compound: CC[C@@]12CC[C@](O)(c3ccccc3)C[C@H]1CCc1cc(O)ccc12
- IC50 (Glucocorticoid receptor [2]): > 5000 nM

Compound: CC[C@@]12C[C@@H](O)[C@](O)(c3ccccc3)C[C@H]1CCc1cc(O)ccc12
- IC50 (Glucocorticoid receptor [2]): > 5000 nM

Compound: CC[C@@]12C[C@@](C)(O)[C@](O)(CC)C[C@H]1CCc1cc(O)ccc12 (mixture of isomers)
- IC50 (Glucocorticoid receptor [1]): 47 nM
- IC50 (Glucocorticoid receptor [2]): > 5000 nM

Compound: C=C[C@]1(O)C[C@H]2CCc3cc(O)ccc3[C@]2(CC)C[C@@]1(C)O (mixture of isomers)
- IC50 (Glucocorticoid receptor [1]): 12.1 nM
- IC50 (Glucocorticoid receptor [2]): 650 nM

Compound: C/C=C/[C@]1(O)C[C@H]2CCc3cc(O)ccc3[C@]2(CC)C[C@@]1(C)O (mixture of isomers)
- IC50 (Glucocorticoid receptor [1]): 2.1 nM
- IC50 (Glucocorticoid receptor [2]): 6 nM

Compound: Cc1noc(=O)c2ccc(NC(=O)C(O)(CC3(c4cc(F)ccc4Cl)CCC3)C(F)(F)F)cc12 (racemic)
- IC50 (Estrogen receptor): > 100000 nM
- IC50 (Glucocorticoid receptor [1]): 0.4 nM
- IC50 (Glucocorticoid receptor [2]): 7.5 nM
- IC50 (Androgen receptor): 40 nM
- IC50 (Glucocorticoid receptor [3]): 1000 nM
- IC50 (Progesterone receptor): 0.2 nM
- IC50 (Estrogen receptor beta): > 100000 nM
